# Measured values as given in patent US8574831B2, “Mutational profiles in HIV-1 reverse transcriptase correlated with phenotypic drug resistance” (Virco N.V., priority 2000, dated 2013).
# Marks after values point to notes of the source that are not given here.
# Columns and labels:
# Assay type in all cases: cell-based
# [1] = system: HIV-1 HXB2 mutants with site-directed mutations in RT; experiment: Recombinant virus assay, drug susceptibility of mutants with site-directed RT mutations (Example 1); conditions: for Fold resistance: standard error in parentheses
# Method: Plasma samples were obtained from HIV-1-infected individuals from routine clinical practice in Europe and the US and were shipped to the laboratory on dry ice and stored at −70° C. until analysis. Phenotypic analysis was performed using the recombinant virus assay. See Kellam, P., and B. A. Larder. Antimicrob. Agents Chemother. 38:23-30 (1994); Hertogs, K., et al., Antimicrob. Agents Chemother. 42:269-276 (1998); Briefly, protease (PR) and reverse transcriptase (RT) coding sequences were amplified from patient-derived viral RNA with HIV-1 specific primers. After homologous recombination of amplicons into a PR-RT deleted proviral clone, the resulting recombinant viruses were harvested, titrated and used for in vitro susceptibility testing to antiretroviral drugs.
# For the modeling studies, mutations were generated in the RT gene of HXB2, a wild-type laboratory HIV-1 strain, using the QuikChange^J Site-Directed Mutagenesis Kit, […]^7, Stratagene Cloning systems, La Jolla, Calif., USA.
# [2] = system: patient-derived recombinant HIV-1 variants (protease/RT from patient plasma); experiment: Recombinant virus assay (ANTIVIROGRAM), MT-4 cell viral cytopathic effect (CPE) protection assay, patient-derived recombinant viruses (Example 2); conditions: for level of resistance: samples with AZT and 3TC resistance mutations plus T69A/N or V175M
# Method: FIG. 1: Nucleoside analogue susceptibility of MDIR patient-derived recombinant HIV variants. Recombinant viruses were produced from patient plasma samples as described in Example 2 and tested for susceptibility to (a) d4T, (b) ddC and (c) ddl. […] Error bars indicate standard errors. Note that the total number (n=310) is higher than the 302 MDR samples described because a small minority were 69D/N and 75M double mutants and are represented in both groups.
# Viral RNA was extracted from 200 μL patient plasma using the QIAAMPV® Viral RNA Extraction Kit (Qiagen, Hilden, Germany), according to the manufacturers instructions. cDNA encompassing part of the pol gene was produced using EXPAND™ reverse transcriptase (Boehringer Mannheim) as described previously. See Hertogs K., et al., Antimicrob. Agents Chemother. 42:269-276 (1998). A 2.2 kb fragment encoding the protease and RT regions was then amplified by nested polymerase chain reaction (PCR) using PCR primers and conditions as described. Id. This genetic material was subsequently used in both phenotyping and genotyping experiments.
# MT-4 cells (Harada S., et al, Science 229:563-566(1985).) were co-transfected with pol gene PCR fragments and the protease-RT deleted HIV-1 molecular clone, pGEM3deltaPRT, as described. See Hertogs K., et al., Antimicrob. Agents Chemother. 42:269-276 (1998). […] Phenotypic susceptibility to nucleoside analogues was determined using an MT-4 cell viral cytopathic effect (CPE) protection assay as described. Id. Fold resistance values were derived by dividing the mean IC50 for a patient's recombinant virus by the mean IC50 for wild-type control virus (strain HXB2-D). The PCR products obtained from patient plasma samples were genotyped by dideoxynucleotide-based sequence analysis. Samples were sequenced using the BIGDYE™ terminator kit (Applied Biosystems, Inc. (ABI)) and resolved on an ABI 377 DNA sequencer.
# From this analysis, 302 samples were identified with four-fold or greater increases in IC50 (relative to a wild-type control virus) to at least four of these inhibitors. […]
# [3] = system: HIV-1 HXB2-D variants with site-directed RT mutations; experiment: MT-4 cell CPE protection assay, HIV-1 variants constructed by site-directed mutagenesis (Example 2); conditions: for susceptibility: 69S-[S-S] insert plus AZT resistance mutations (210W and 215Y); for resistance: T69A or V75M in a background of AZT mutations
# Method: Mutations in the RT coding region were created by site-directed mutagenesis of a wild-type HXB2-D EcoRl-Pstl restriction enzyme fragment, encompassing the HIV-1 pol gene and cloned into pGEM3 (Promega). Single and multiple nucleotide changes were introduced into RT using the EXSITE™ mutagenesis kit (Strategene). All mutant clones were verified by DNA sequence analysis of the entire RT. PCR fragments were prepared from the mutated clones and the altered RT coding regions were transferred into the HIV-1 HXB2-D genetic background by homologous recombination as described above. The susceptibility of these recombinant viruses to nucleoside analogues was subsequently determined by the MT-4 cell CPE protection assay. Id.
smiles,measurement,setting,value
"Nc1ccn([C@@H]2CS[C@H](CO)O2)c(=O)n1 [3TC, lamivudine]",Fold resistance,"[1]; SDM05: 41L, 210W, 211K, 214F, 215Y",4 (0.3)^c fold
same,Fold resistance,"[1]; SDM18: 41L, 67N, 210W, 211K, 214F, 215Y",2 (0.6) fold
same,Fold resistance,"[1]; SDM19: 41L, 67N, 69D, 210W, 211K, 214F, 215Y",4 (0.7) fold
same,Fold resistance,"[1]; SDM22: 184V, 41L, 210W, 211K, 214F, 215Y",78 (16.3) fold
same,Fold resistance,[1]; SDM23: 184V,82 (13.6) fold
same,Fold resistance,"[1]; SDM24: 184V, 69S-S-S, 210W, 211K, 214D, 215Y",85 (14.2) fold
same,Fold resistance,"[1]; SDM26: 184V, 41L, 67N, 210W, 211K, 214F, 215Y",72 (13.8) fold
same,Fold resistance,[1]; SDM28: 44D,1 (0.1) fold
same,Fold resistance,[1]; SDM29: 1181,2 (0.2) fold
same,Fold resistance,"[1]; SDM30: 44D, 1181",3 (0.3) fold
same,Fold resistance,"[1]; SDM31: 44D, 41L, 67N, 210W, 211K, 214F, 215Y",22 (2.5) fold
same,Fold resistance,"[1]; SDM32: 44D, 41L, 67N, 69D, 210W, 211K, 214F, 215Y",8 (2.2) fold
same,Fold resistance,"[1]; SDM33: 1181, 41L, 67N, 210W, 211K, 214F, 215Y",7 (1.0) fold
same,Fold resistance,"[1]; SDM34: 1181, 41L, 67N, 69D, 210W, 211K, 214F, 215Y",32 (3.9) fold
same,Fold resistance,"[1]; SDM35: 44D, 1181, 41L, 67N, 210W, 211K, 214F, 215Y",14 (1.4) fold
same,Fold resistance,"[1]; SDM36: 44D, 1181, 41L, 67N, 69D, 210W, 211K, 214D, 215Y",15 (2.1) fold
same,Fold resistance,"[1]; SDM38: 184V, 44D, 1181, 41L, 67N, 210W, 211K, 214F, 215Y",82 (13.5) fold
same,Fold resistance,"[1]; SDM39: 184V, 44D, 1181, 41L, 67N, 69D, 210W, 211K, 214F, 215Y",84 (13.9) fold
same,high resistance,[1]; caused by mutation 184V,> 62 fold
same,mean fold increase in IC50,"[2]; all four MDR groups (151 cluster, 69D/N, 75M, codon 69 insertions)",> 30 fold
"Cc1cn([C@H]2C=C[C@@H](CO)O2)c(=O)[nH]c1=O [d4T, stavudine]",level of resistance,[2],only modest levels of resistance
same,susceptibility,[3],decreased susceptibility
same,resistance,[3],little or no resistance
"Nc1ccn([C@H]2CC[C@@H](CO)O2)c(=O)n1 [ddC, zalcitabine]",level of resistance,[2],only modest levels of resistance
same,susceptibility,[3],decreased susceptibility
same,resistance,[3],little or no resistance
